Source: publication PMC3966265, “Phosphorylation of Arabidopsis transketolase at Ser^428 provides a potential paradigm for the metabolic control of chloroplast carbon metabolism” (Biochemical Journal, 2014)

Tests used:
Assay type in all cases: biochemical
[1] = biological target: T1, cpCKII (Arabidopsis thaliana, UniProt O64816); test: […] phosphorylation of recombinant AtTKL1, SDS/PAGE autoradiogram; details: labelled compound; 10 mM MgCl2; pH 7.6; 22 °C; with calcium or EGTA
T1 construct: gene CKA4; mature form lacking N-terminal 85 residues; N-terminal GST fusion (pGEX4-T1) kept; E. coli
T1 sequence (O64816 86-432): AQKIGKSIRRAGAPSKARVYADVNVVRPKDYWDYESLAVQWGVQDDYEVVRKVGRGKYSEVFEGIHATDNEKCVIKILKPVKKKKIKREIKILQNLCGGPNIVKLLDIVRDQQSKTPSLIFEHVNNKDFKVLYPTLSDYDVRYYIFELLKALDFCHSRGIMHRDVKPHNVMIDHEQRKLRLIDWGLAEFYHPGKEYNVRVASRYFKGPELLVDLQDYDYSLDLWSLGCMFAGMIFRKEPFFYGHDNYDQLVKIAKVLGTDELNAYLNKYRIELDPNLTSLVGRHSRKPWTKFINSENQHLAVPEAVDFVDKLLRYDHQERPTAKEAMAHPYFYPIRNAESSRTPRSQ

[2] = biological target: T2, AtTKL1 (Arabidopsis thaliana, UniProt Q8RWV0, S428D); test: coupled NAD reduction assay with E. coli E4PDH, A340; details: phosphomimetic mutant; 2 mM G3P; 0.1 mM TPP; 15 mM MgCl2; 5 mM CaCl2; pH 7.2 and 8.0; 30 °C
T2 construct: gene TKL-1; mature form lacking N-terminal 67 residues (chloroplast-targeting peptide); N-terminal intein tag cleaved; E. coli ER2566; 73 kDa; homodimer

[3] = biological target: T3, AtTKL1 (Arabidopsis thaliana, UniProt Q8RWV0); test: as above; details: 2 mM G3P; 0.1 mM TPP; 15 mM MgCl2; 5 mM CaCl2; pH 7.2 and 8.0; 30 °C
T3 construct: gene TKL-1; mature form lacking N-terminal 67 residues (chloroplast-targeting peptide); N-terminal intein tag cleaved; E. coli ER2566; 73 kDa; homodimer
T3 sequence (Q8RWV0 68-741): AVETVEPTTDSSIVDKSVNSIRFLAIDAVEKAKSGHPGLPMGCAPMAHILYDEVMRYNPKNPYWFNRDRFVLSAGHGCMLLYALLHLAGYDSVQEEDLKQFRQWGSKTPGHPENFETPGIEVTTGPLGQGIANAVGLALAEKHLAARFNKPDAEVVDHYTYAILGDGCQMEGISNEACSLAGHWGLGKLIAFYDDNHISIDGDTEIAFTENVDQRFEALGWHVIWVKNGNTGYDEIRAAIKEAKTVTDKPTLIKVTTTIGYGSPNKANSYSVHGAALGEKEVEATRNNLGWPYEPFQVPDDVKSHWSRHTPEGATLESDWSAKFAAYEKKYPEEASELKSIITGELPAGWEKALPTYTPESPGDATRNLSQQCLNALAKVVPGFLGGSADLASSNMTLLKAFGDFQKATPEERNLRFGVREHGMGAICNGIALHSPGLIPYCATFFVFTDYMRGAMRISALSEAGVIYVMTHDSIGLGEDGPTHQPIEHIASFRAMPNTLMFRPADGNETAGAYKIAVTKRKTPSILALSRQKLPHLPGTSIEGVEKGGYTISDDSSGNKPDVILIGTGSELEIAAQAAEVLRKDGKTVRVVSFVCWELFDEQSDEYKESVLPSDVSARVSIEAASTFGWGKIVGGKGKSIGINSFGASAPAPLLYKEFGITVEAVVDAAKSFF

T2 sequence (Q8RWV0 68-741 S428D): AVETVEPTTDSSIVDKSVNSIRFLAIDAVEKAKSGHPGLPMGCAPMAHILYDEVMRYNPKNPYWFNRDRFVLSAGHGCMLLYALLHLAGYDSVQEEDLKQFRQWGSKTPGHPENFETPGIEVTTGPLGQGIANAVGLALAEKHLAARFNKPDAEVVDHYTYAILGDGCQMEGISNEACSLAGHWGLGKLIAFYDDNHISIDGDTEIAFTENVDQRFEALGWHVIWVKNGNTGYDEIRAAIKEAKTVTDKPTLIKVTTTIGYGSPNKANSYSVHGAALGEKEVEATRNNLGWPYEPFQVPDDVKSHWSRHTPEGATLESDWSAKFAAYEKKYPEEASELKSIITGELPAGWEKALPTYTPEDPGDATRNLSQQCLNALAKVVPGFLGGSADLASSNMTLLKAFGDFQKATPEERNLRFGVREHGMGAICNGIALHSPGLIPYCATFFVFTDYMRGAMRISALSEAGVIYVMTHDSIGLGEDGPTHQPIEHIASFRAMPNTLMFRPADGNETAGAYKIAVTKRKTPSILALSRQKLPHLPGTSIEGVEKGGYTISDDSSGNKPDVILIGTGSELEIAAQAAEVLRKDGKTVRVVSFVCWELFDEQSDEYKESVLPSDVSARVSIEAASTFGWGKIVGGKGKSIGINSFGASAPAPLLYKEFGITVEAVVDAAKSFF

| Compound | 32P phosphorylation of recombinant AtTKL1, SDS/PAGE autoradiogram [1] | KmF6P [2] | KmF6P [3] |
| --- | --- | --- | --- |
| Nc1ncnc2c1ncn2[C@@H]1O[C@H](COP(=O)(O)OP(=O)(O)OP(=O)(O)O)[C@@H](O)[C@H]1O [ATP] | cpCKII was able to phosphorylate recombinant AtTKL1 (Figure 2F, arrowheads) |  |  |
| O=P(O)(O)OC[C@H]1OC(O)(CO)[C@@H](O)[C@@H]1O (stereo partly shown) [F6P] |  | higher KmF6P and VmaxF6P values compared with the phosphomimetic mutant | the wild-type enzyme had higher KmF6P and VmaxF6P values |
| Nc1nc2c(ncn2[C@@H]2O[C@H](COP(=O)(O)OP(=O)(O)OP(=O)(O)O)[C@@H](O)[C@H]2O)c(=O)[nH]1 [GTP] | recombinant cpCKII was able to utilize GTP |  |  |
